# According to ChEMBL document CHEMBL3091360, “Homosecoiridoid alkaloids with amino acid units from the flower buds of Lonicera japonica” (J Nat Prod, 2013):
# Calls of active or inactive are those of the source. No cut-off for these calls is given here.
# Experiments:
# [1] = system: Human immunodeficiency virus 1; experiment: Antiviral activity against HIV1 infected in human 293T cells expressing VSV-G assessed as inhibition of viral p24 production at 10 uM after 48 hrs by ELISA; format: functional, organism-based
# [2] = system: Bel-7402; experiment: Cytotoxicity against human Bel7402 cells at 10 uM after 96 hrs by MTT assay; format: functional, cell-based
# [3] = system: BGC-823; experiment: Cytotoxicity against human BGC823 cells at 10 uM after 96 hrs by MTT assay; format: functional, cell-based
# [4] = Antiinflammatory activity in rat polymorphonuclear leukocytes assessed as inhibition of PAF-induced release of glucuronidase at 10 uM; format: functional
# [5] = system: MCF7; experiment: Cytotoxicity against human MCF7 cells at 10 uM after 96 hrs by MTT assay; format: functional, cell-based
# [6] = system: HCT-8; experiment: Cytotoxicity against human HCT8 cells at 10 uM after 96 hrs by MTT assay; format: functional, cell-based
# [7] = system: A549; experiment: Cytotoxicity against human A549 cells at 10 uM after 96 hrs by MTT assay; format: functional, cell-based
# [8] = system: KETR3; experiment: Cytotoxicity against human Ketr3 cells at 10 uM after 96 hrs by MTT assay; format: functional, cell-based
# [9] = system: Influenza A virus H3N2; experiment: microbe, parasite or virus in culture; conditions: Hanfang/359/95
SMILES,inhibition [1],Activity [2],Activity [3],inhibition at 10 µM [4],Activity [5],Activity [6],Activity [7],Activity [8],IC50 [9]
C=C[C@H]1[C@H](O[C@@H]2O[C@H](CO)[C@@H](O)[C@H](O)[C@H]2O)OC=C(C(=O)OC)[C@H]1/C=C/CC(=O)OC,inactive,inactive,inactive,< 30%,inactive,inactive,inactive,inactive,
C=C[C@H]1[C@H](O[C@@H]2O[C@H](CO)[C@@H](O)[C@H](O)[C@H]2O)OC=C(C(=O)OC)[C@H]1/C=C/c1ccc[n+]([C@@H](C)C(=O)[O-])c1,inactive,inactive,inactive,72.3%,inactive,inactive,inactive,inactive,
O=C(/C=C/c1ccc(O)c(O)c1)O[C@H]1[C@H](O)C[C@@](O)(C(=O)O)C[C@H]1O,inactive,inactive,inactive,< 30%,inactive,inactive,inactive,inactive,
Nc1ncnc2c1ncn2[C@@H]1O[C@H](CO)[C@@H](O)[C@H]1O [ADENOSINE],inactive,inactive,inactive,< 30%,inactive,inactive,inactive,inactive,
C=C[C@H]1[C@H](O[C@@H]2O[C@H](CO)[C@@H](O)[C@H](O)[C@H]2O)OC=C(C(=O)[O-])[C@H]1/C=C/c1cc(C(=O)O)c[n+]([C@H](C(=O)O)[C@@H](C)CC)c1,inactive,inactive,inactive,< 30%,inactive,inactive,inactive,inactive,
C=C[C@H]1[C@H](O[C@@H]2O[C@H](CO)[C@@H](O)[C@H](O)[C@H]2O)OC=C(C(=O)OC)[C@H]1/C=C/c1cc(C(=O)O)c[n+]([C@H](C(=O)[O-])C(C)C)c1,inactive,inactive,inactive,< 30%,inactive,inactive,inactive,inactive,
O=C(O)c1cc(O[C@@H]2O[C@H](CO)[C@@H](O)[C@H](O)[C@H]2O)ccc1O,inactive,inactive,inactive,< 30%,inactive,inactive,inactive,inactive,
C[C@@H]1C(=O)O[C@H]2[C@H](O)[C@@]34[C@H]5C[C@@H](C(C)(C)C)[C@]36[C@@H](OC(=O)[C@@H]6O)O[C@@]4(C(=O)O5)[C@@]12O [GINKOLIDE B],inactive,inactive,inactive,78%,inactive,inactive,inactive,inactive,
O=C(OCc1ccccc1)c1c(O)cccc1O[C@@H]1O[C@H](CO)[C@@H](O)[C@H](O)[C@H]1O,inactive,inactive,inactive,< 30%,inactive,inactive,inactive,inactive,
O=C(O)/C=C/c1ccc(O)c(O)c1 [CAFFEIC ACID],inactive,inactive,inactive,40.3%,inactive,inactive,inactive,inactive,
O=C(O)/C=C/c1ccc(O[C@@H]2O[C@H](CO)[C@@H](O)[C@H](O)[C@H]2O)c(O)c1,inactive,inactive,inactive,< 30%,inactive,inactive,inactive,inactive,
COC(=O)C1=CO[C@@H](O[C@@H]2O[C@H](CO)[C@@H](O)[C@H](O)[C@H]2O)[C@H]2[C@@H]1CC(=O)[C@@H]2C,inactive,inactive,inactive,< 30%,inactive,inactive,inactive,inactive,
C=C[C@H]1[C@H](O[C@@H]2O[C@H](CO)[C@@H](O)[C@H](O)[C@H]2O)OC=C(C(=O)[O-])[C@H]1/C=C\c1ccc[n+]([C@H](Cc2ccccc2)C(=O)O)c1,inactive,inactive,inactive,< 30%,inactive,inactive,inactive,inactive,
C=C[C@H]1[C@H](O[C@@H]2O[C@H](CO)[C@@H](O)[C@H](O)[C@H]2O)OC=C(C(N)=O)[C@H]1/C=C/c1ccc[n+]([C@@H](CCC(=O)O)C(=O)[O-])c1,inactive,inactive,inactive,< 30%,inactive,inactive,inactive,inactive,
O=C(/C=C/c1ccc(O)c(O)c1)O[C@@H]1C[C@](O)(C(=O)O)C[C@@H](OC(=O)/C=C/c2ccc(O)c(O)c2)[C@H]1O,inactive,inactive,inactive,< 30%,inactive,inactive,inactive,inactive,4.9 µM
COc1cc(/C=C/CO)cc(OC)c1O[C@@H]1O[C@H](CO)[C@@H](O)[C@H](O)[C@H]1O [SYRINGIN],inactive,inactive,inactive,< 30%,inactive,inactive,inactive,inactive,
O=C(/C=C/c1ccc(O)c(O)c1)O[C@@H]1C[C@](O)(C(=O)O)C[C@@H](O)[C@H]1O [CHLOROGENIC ACID],inactive,inactive,inactive,< 30%,inactive,inactive,inactive,inactive,
COC(=O)[C@]1(O)C[C@@H](O)[C@@H](O)[C@H](OC(=O)/C=C/c2ccc(O)c(O)c2)C1 [CHLOROGENIC ACID METHYL ESTER],inactive,inactive,inactive,< 30%,inactive,inactive,inactive,inactive,
O=C(/C=C/c1ccc(O)c(O)c1)O[C@@H]1C[C@@](O)(C(=O)O)C[C@@H](O)[C@H]1O,inactive,inactive,inactive,< 30%,inactive,inactive,inactive,inactive,
CCOC(=O)C1=C[C@@H](OC(CC)CC)[C@H](NC(C)=O)[C@@H](N)C1 [OSELTAMIVIR],,,,,,,,,1.3 µM
COC(=O)C1=CO[C@@H]2C[C@H]1C[C@@H]1C(C(=O)OC)=CO[C@@H](O[C@@H]3O[C@H](CO)[C@@H](O)[C@H](O)[C@H]3O)[C@@H]12,inactive,inactive,inactive,< 30%,inactive,inactive,inactive,inactive,
C=C[C@H]1[C@H](O[C@@H]2O[C@H](CO)[C@@H](O)[C@H](O)[C@H]2O)OC=C(C(=O)OC)[C@H]1CC(=O)OC,inactive,inactive,inactive,< 30%,inactive,inactive,inactive,inactive,
COc1cc(C(=O)O)ccc1O[C@@H]1O[C@H](COC(=O)c2ccccc2)[C@@H](O)[C@H](O)[C@H]1O,inactive,inactive,inactive,< 30%,inactive,inactive,inactive,inactive,
O=C(O)c1ccc(O)c(O)c1 [PROTOCATECHUIC ACID],inactive,inactive,inactive,< 30%,inactive,inactive,inactive,inactive,
